Values joined by “and” are separate entries in the source; they are usually repeats but may differ in a detail not shown here. Equal entries are not always repeated.
Assays:
SMUG1 = biological target: T1, SMUG1 (Homo sapiens, UniProt Q53HV7); experiment: BER enzyme selectivity assay, SMUG1; type: biochemical; settings: Figure 3B, three independent experiments
T1 construct: purchased New England Biolabs M0336
T1 sequence (Q53HV7 1-270): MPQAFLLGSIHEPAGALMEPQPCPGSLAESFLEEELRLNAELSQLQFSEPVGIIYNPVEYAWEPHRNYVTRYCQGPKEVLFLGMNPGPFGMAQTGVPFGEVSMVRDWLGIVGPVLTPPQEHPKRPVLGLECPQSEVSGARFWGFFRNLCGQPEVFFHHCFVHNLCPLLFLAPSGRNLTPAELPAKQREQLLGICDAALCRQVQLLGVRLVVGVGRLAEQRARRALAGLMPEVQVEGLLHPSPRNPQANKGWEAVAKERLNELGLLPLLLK
Description: (§1) Inhibition of the following enzymes was assessed in the selectivity assays: apurinic/apyrimidinic endonuclease (APE1), endonuclease 8-like 1 (NEIL1), oxidized purine nucleoside triphosphate hydrolase (MTH1) and single-strand selective monofunctional uracil DNA glycosylase (SMUG1). BER enzymes were assayed with a similar strategy as OGG1, using identical DNA sequences surrounding the substrate lesion and the same reaction buffer containing 2 nM APE1. To assess SMUG1 inhibition, a 375 nM substrate containing uracil opposite guanine and 0.3 U SMUG1 enzyme (M0336 from New England Biolabs) was used. To assess NEIL1 inhibition, a 20 nM substrate containing thymidine glycol opposite adenine and 10 nM NEIL1 was used. […] All BER inhibition assays were in the linear range and less than 40% of the total substrate had been consumed at readout. The experiments were performed in three independent replicates and the percentage inhibition was calculated relative to the signal of a DMSO-treated control. […] The produced free phosphate was then detected using the malachite green assay[76]. […] Absorbance was read at 630 nm using a Hidex Sense plate reader after a period of incubation with the methylene green reagent of 15 minutes. The experiment was performed in three independent replicates and percentage inhibition was calculated relative to the signal of a DMSO-treated control.

NEIL1 = NEIL1 (Homo sapiens, UniProt Q96FI4); experiment: biochemical
NEIL1, sequence (Q96FI4 whole entry, species assumed): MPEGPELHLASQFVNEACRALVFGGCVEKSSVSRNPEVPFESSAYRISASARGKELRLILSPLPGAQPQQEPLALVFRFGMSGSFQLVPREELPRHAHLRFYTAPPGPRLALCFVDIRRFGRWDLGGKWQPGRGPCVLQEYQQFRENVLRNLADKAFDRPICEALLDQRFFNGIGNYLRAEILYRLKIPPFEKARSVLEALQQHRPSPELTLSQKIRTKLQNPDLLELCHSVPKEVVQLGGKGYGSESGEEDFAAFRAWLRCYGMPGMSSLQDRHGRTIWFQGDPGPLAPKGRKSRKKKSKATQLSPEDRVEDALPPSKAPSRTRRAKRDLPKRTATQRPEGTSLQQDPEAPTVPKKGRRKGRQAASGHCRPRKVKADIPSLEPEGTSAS
Description: as §1

APE1 = APE1 (Homo sapiens, UniProt P27695); experiment: biochemical
APE1, sequence (P27695 whole entry, species assumed): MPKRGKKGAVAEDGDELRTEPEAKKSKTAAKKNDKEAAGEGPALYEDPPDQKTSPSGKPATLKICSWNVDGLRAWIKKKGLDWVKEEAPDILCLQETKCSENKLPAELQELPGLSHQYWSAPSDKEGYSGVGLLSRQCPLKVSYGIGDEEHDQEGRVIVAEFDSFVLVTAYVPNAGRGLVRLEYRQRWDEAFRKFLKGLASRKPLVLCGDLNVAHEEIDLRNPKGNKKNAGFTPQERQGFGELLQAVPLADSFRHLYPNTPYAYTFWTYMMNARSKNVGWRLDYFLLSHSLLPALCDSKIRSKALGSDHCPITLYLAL
Description: as §1

MTH1 = MTH1 (Homo sapiens, UniProt P36639); experiment: biochemical
Description: Inhibition of the following enzymes was assessed in the selectivity assays: apurinic/apyrimidinic endonuclease (APE1), endonuclease 8-like 1 (NEIL1), oxidized purine nucleoside triphosphate hydrolase (MTH1) and single-strand selective monofunctional uracil DNA glycosylase (SMUG1). BER enzymes were assayed with a similar strategy as OGG1, using identical DNA sequences surrounding the substrate lesion and the same reaction buffer containing 2 nM APE1. To assess SMUG1 inhibition, a 375 nM substrate containing uracil opposite guanine and 0.3 U SMUG1 enzyme (M0336 from New England Biolabs) was used. To assess NEIL1 inhibition, a 20 nM substrate containing thymidine glycol opposite adenine and 10 nM NEIL1 was used. To assess APE1 inhibition, an UNG2 substrate was pre-treated with E. coli Uracil-DNA glycosylase (New England Biolabs M0280) to generate an AP-site opposite adenine, which was used at 10 nM concentration in the presence of 0.1 nM APE1. All BER inhibition assays were in the linear range and less than 40% of the total substrate had been consumed at readout. The experiments were performed in three independent replicates and the percentage inhibition was calculated relative to the signal of a DMSO-treated control. To assess MTH1 inhibition, MTH1-catalyzed dGTP hydrolysis was coupled to inorganic pyrophosphatase (PPase), thereby releasing inorganic phosphate. The produced free phosphate was then detected using the malachite green assay[76]. […] Substrate concentration at the Km value for the respective substrate was chosen if possible. Inhibition using 100 μM compound was tested in reaction buffer (100 mM Tris-Acetate pH 8.0, 10 mM magnesium acetate, 40 mM NaCl, 1 mM DTT, and 0.005% Tween-20). Samples were incubated with shaking at 22 °C for 15 minutes. The reaction was then stopped by the addition of the malachite green reagent[76]. Absorbance was read at 630 nm using a Hidex Sense plate reader after a period of incubation with the methylene green reagent of 15 minutes. The experiment was performed in three independent replicates and percentage inhibition was calculated relative to the signal of a DMSO-treated control.

- IC50 (SMUG1): > 99 µM
- IC50 (NEIL1): > 99 µM
- IC50 (APE1): > 99 µM
- IC50 (MTH1): 24.3 µM and 20.6 µM and 24.9 µM
SMILES: Cc1nc(-c2ccc(CC(=O)Nc3noc4c3CCCC4)cc2)c(C)[nH]1 [compound 17]

Reference: paper PMC11836371, “Virtual fragment screening for DNA repair inhibitors in vast chemical space” (Nature Communications, 2025)
